Data reported in US11780826B2 (Amgen Inc., priority 2017, dated 2023).

Tested on: Bovine cardiac myofibrils
Assay: In vitro model of dose-dependent myofibril ATPase modulation (AC1.4, pyruvate kinase/lactate dehydrogenase-coupled ATPase assay at pCa25)
Assay type: biochemical
Settings: concentration at which ATPase activity was 1.4-fold higher than the bottom of the dose curve, mean of a minimum of two independent tests
Outline: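 Bovine cardiac myofibrils, detergent-treated; 0.25-1.0 mg/ml. Buffer: K-PIPES 12 mM, MgCl2 2 mM, DTT 1 mM, BSA 0.1 mg/ml, pH 6.80, 22° C; Ca2+ set by EGTA/CaCl2. ATP 1 mM, NADH/PEP-coupled, A340. 4-parameter fit; n≥2.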

How did the AC1.4 turn out when `N#CC1CN(S(=O)(=O)c2cccc(C(=O)N3CCC[C@@H]3C(=O)NCc3ccc(C(F)(F)F)nc3)c2)C1` [Example 131, 1-((3-((3-cyano-1-azetidinyl)sulfonyl)phenyl)carbonyl)-N-((6-(trifluoromethyl)-3-pyridinyl)methyl)-D-prolinamide] was run?
Its AC1.4 is 0.2158 µM.

With `N#CC1CN(S(=O)(=O)N2CCC[C@H](C(=O)N3CCC[C@@H]3C(=O)NC(c3ccc(Cl)cc3)C3CCCO3)C2)C1` (stereo partly drawn) [Example 132, N-(-(4-chlorophenyl)(-tetrahydro-2-furanyl)methyl)-1-(((3S)-1-((3-cyano-1-azetidinyl)sulfonyl)-3-piperidinyl)carbonyl)-D-prolinamide] as the compound, how does the AC1.4 read?
The AC1.4 was 0.2176 µM.

For `CCS(=O)(=O)c1ccnc(C(=O)N2[C@@H](C(=O)N[C@@H](c3cc(F)c(Cl)cc3F)C3CC3)C[C@H]3C[C@H]32)c1` [Example 133, (1R,3R,5R)-N-((R)-(4-chloro-2,5-difluorophenyl)(cyclopropyl)methyl)-2-((4-(ethylsulfonyl)-2-pyridinyl)carbonyl)-2-azabicyclo[3.1.0]hexane-3-carboxamide], which AC1.4 is on record?
Its AC1.4 is 0.2186 µM.

`N#CC1CN(S(=O)(=O)N2CCC[C@H](C(=O)N3CCC[C@@H]3C(=O)NC(CO)c3ccc(C(F)(F)F)cc3)C2)C1` (stereo partly drawn) [Example 134, 1-(((3S)-1-((3-cyano-1-azetidinyl)sulfonyl)-piperidinyl)carbonyl)-N-(-2-hydroxy-1-(4-(trifluoromethyl)phenyl)ethyl)-D-prolinamide] was tested. Which AC1.4 did it give?
The AC1.4 was 0.2198 µM.

Which AC1.4 does the source give for `N#CC1CN(S(=O)(=O)c2cccc(C(=O)N3CCC[C@@H]3C(=O)NCc3cnc(C(F)(F)F)nc3)c2)C1` [Example 136, 1-((3-((3-cyano-1-azetidinyl)sulfonyl)phenyl)carbonyl)-N-((2-(trifluoromethyl)-5-pyrimidinyl)methyl)-D-prolinamide] here?
Its AC1.4 is 0.2235 µM.

Which AC1.4 does the source give for `Cc1cc(CNC(=O)[C@H]2CCCN2C(=O)[C@H]2CCCN(S(=O)(=O)N3CC(C#N)C3)C2)ccc1Cl` [Example 137, N-(4-chloro-3-methylbenzyl)-1-(((3S)-1-((3-cyano-1-azetidinyl)sulfonyl)-3-piperidinyl)carbonyl)-D-prolinamide] here?
The AC1.4 was 0.2267 µM.

`O=C(N[C@@H](c1cc(F)c(Cl)cc1F)C1CC1)[C@H]1C[C@H]2C[C@H]2N1C(=O)c1cc(S(=O)(=O)C2CC2)ccn1` [Example 138, (1R,3R,5R)-N-((R)-(4-chloro-2,5-difluorophenyl)(cyclopropyl)methyl)-2-((4-(cyclopropylsulfonyl)-2-pyridinyl)carbonyl)-2-azabicyclo[3.1.0]hexane-3-carboxamide] was tested. Which AC1.4 did it give?
Its AC1.4 is 0.2306 µM.

How did the AC1.4 turn out when `NS(=O)(=O)c1cccc(C(=O)N2[C@@H](C(=O)N[C@@H](c3cc(F)c(Cl)cc3F)C3CC3)C[C@H]3C[C@H]32)c1` [Example 139, (1R,3R,5R)-N-((R)-(4-chloro-2,5-difluorophenyl)(cyclopropyl)methyl)-2-(3-sulfamoylbenzoyl)-2-azabicyclo[3.1.0]hexane-3-carboxamide] was run?
The AC1.4 was 0.232 µM.

For `Cc1cc(C(=O)N2[C@@H](C(=O)N[C@@H](c3cc(F)c(Cl)cc3F)C3COC3)C[C@H]3C[C@H]32)cc(S(C)(=O)=O)c1` [Example 140, (1R,3R,5R)-N-((R)-(4-chloro-2,5-difluorophenyl)(3-oxetanyl)methyl)-2-(3-methyl-5-(methylsulfonyl)benzoyl)-2-azabicyclo[3.1.0]hexane-3-carboxamide], which AC1.4 is on record?
The AC1.4 was 0.2351 µM.

Which AC1.4 does the source give for `CS(=O)(=O)c1cccc(C(=O)N2C[C@@H](F)C[C@@H]2C(=O)N[C@@H](c2cc(F)c(Cl)cc2F)C2COC2)c1` [Example 141, (4S)-N-((R)-(4-chloro-2,5-difluorophenyl)(3-oxetanyl)methyl)-4-fluoro-1-(3-(methylsulfonyl)benzoyl)-D-prolinamide] here?
Its AC1.4 is 0.2366 µM.

With `N#CC1CN(S(=O)(=O)c2cc(C(=O)N3CCC[C@@H]3C(=O)NCc3ccc(C(F)(F)F)cc3F)ccn2)C1` [Example 142, 1-((2-((3-cyano-1-azetidinyl)sulfonyl)-4-pyridinyl)carbonyl)-N-(2-fluoro-4-(trifluoromethyl)benzyl)-D-prolinamide] as the compound, how does the AC1.4 read?
Its AC1.4 is 0.2421 µM.

`N#CC1CN(S(=O)(=O)N2CCC(F)(F)[C@H](C(=O)N3CCC[C@@H]3C(=O)NCc3ccc(C(F)(F)F)cc3)C2)C1` [Example 143, 1-(((3S)-1-((3-cyano-1-azetidinyl)sulfonyl)-4,4-difluoro-3-piperidinyl)carbonyl)-N-(4-(trifluoromethyl)benzyl)-D-prolinamide] was tested. Which AC1.4 did it give?
The AC1.4 was 0.244 µM.

How did the AC1.4 turn out when `C[C@@H](NC(=O)[C@H]1CCCN1C(=O)[C@@H]1CN(S(=O)(=O)N2CC(C#N)C2)CCN1)c1ccc(C(F)(F)F)cc1F` [Example 144, 1-(((2S)-4-((3-cyano-1-azetidinyl)sulfonyl)-2-piperazinyl)carbonyl)-N-((1R)-1-(2-fluoro-4-(trifluoromethyl)phenyl)ethyl)-D-prolinamide] was run?
Its AC1.4 is 0.2462 µM.

`Cc1c(CNC(=O)[C@H]2CCCN2C(=O)[C@H]2CCCN(S(=O)(=O)N3CC(C#N)C3)C2)cccc1C(F)(F)F` [Example 145, 1-(((3S)-1-((3-cyano-1-azetidinyl)sulfonyl)-3-piperidinyl)carbonyl)-N-(2-methyl-3-(trifluoromethyl)benzyl)-D-prolinamide] was tested. Which AC1.4 did it give?
The AC1.4 was 0.2465 µM.

Which AC1.4 does the source give for `CC[C@@H](NC(=O)[C@H]1CCCN1C(=O)c1cccc(S(=O)(=O)N(C)C)c1)c1ccc(C(F)(F)F)cc1F` [Example 146, 1-(3-(dimethylsulfamoyl)benzoyl)-N-((1R)-1-(2-fluoro-4-(trifluoromethyl)phenyl)propyl)-D-prolinamide] here?
The AC1.4 was 0.2474 µM.

For `CNc1ccc(S(C)(=O)=O)cc1C(=O)N1[C@@H](C(=O)N[C@@H](c2ccc(C(F)(F)F)cc2F)C2CC2)C[C@H]2C[C@H]21` [Example 148, (1R,3R,5R)-N-((R)-cyclopropyl(2-fluoro-4-(trifluoromethyl)phenyl)methyl)-2-(2-(methylamino)-5-(methylsulfonyl)benzoyl)-2-azabicyclo[3.1.0]hexane-3-carboxamide], which AC1.4 is on record?
Its AC1.4 is 0.2569 µM.

Which AC1.4 does the source give for `N#CC1CN(S(=O)(=O)N2CCO[C@H](C(=O)N3CCC[C@@H]3C(=O)NCc3ccc(C(F)(F)F)cc3)C2)C1` [Example 149, 1-(((2S)-4-((3-cyano-1-azetidinyl)sulfonyl)-2-morpholinyl)carbonyl)-N-(4-(trifluoromethyl)benzyl)-D-prolinamide] here?
The AC1.4 was 0.2589 µM.

For `C[C@@H](NC(=O)[C@H]1CCCN1C(=O)[C@H]1CCCN(S(=O)(=O)N2CC(S(C)(=O)=O)C2)C1)c1ccc(Cl)cc1` [Example 150, N-((1R)-1-(4-chlorophenyl)ethyl)-1-(((3S)-1-((3-(methylsulfonyl)-1-azetidinyl)sulfonyl)-3-piperidinyl)carbonyl)-D-prolinamide], which AC1.4 is on record?
Its AC1.4 is 0.2589 µM.

With `O=C(NCc1ccc(C(F)(F)F)cc1F)[C@H]1CCCN1C(=O)[C@H]1CCCN(S(=O)(=O)N2CC(n3ccnn3)C2)C1` [Example 151, N-(2-fluoro-4-(trifluoromethyl)benzyl)-1-(((3S)-1-((3-(1H-l,2,3-triazol-1-yl)-1-azetidinyl)sulfonyl)-3-piperidinyl)carbonyl)-D-prolinamide] as the compound, how does the AC1.4 read?
Its AC1.4 is 0.2616 µM.

`Cc1c(Cl)cccc1CNC(=O)[C@H]1CCCN1C(=O)[C@H]1CCCN(S(=O)(=O)N2CC(C#N)C2)C1` [Example 152, N-(3-chloro-2-methylbenzyl)-1-(((3S)-1-((3-cyano-1-azetidinyl)sulfonyl)-3-piperidinyl)carbonyl)-D-prolinamide] was tested. Which AC1.4 did it give?
The AC1.4 was 0.2624 µM.

`N#CC1CN(S(=O)(=O)N2CCC[C@H](C(=O)N3CCC[C@@H]3C(=O)NCc3cc(F)c(F)c(F)c3)C2)C1` [Example 153, 1-(((3S)-1-((3-cyano-1-azetidinyl)sulfonyl)-3-piperidinyl)carbonyl)-N-(3,4,5-trifluorobenzyl)-D-prolinamide] was tested. Which AC1.4 did it give?
The AC1.4 was 0.2697 µM.

For `CS(=O)(=O)c1ccc(NCCO)c(C(=O)N2CCC[C@@H]2C(=O)N[C@@H](c2ccc(C(F)(F)F)cc2F)C2CC2)c1` [Example 154, N-((R)-cyclopropyl(2-fluoro-4-(trifluoromethyl)phenyl)methyl)-1-(2-((2-hydroxyethyl)amino)-5-(methylsulfonyl)benzoyl)-D-prolinamide], which AC1.4 is on record?
The AC1.4 was 0.2715 µM.

With `Cc1ccc(C(C)NC(=O)[C@H]2CCCN2C(=O)[C@H]2CCCN(S(=O)(=O)N3CC(C#N)C3)C2)cc1F` (stereo partly drawn) [Example 155, 1-(((3S)-1-((3-cyano-1-azetidinyl)sulfonyl)-3-piperidinyl)carbonyl)-N-(-1-(3-fluoro-4-methylphenyl)ethyl)-D-prolinamide] as the compound, how does the AC1.4 read?
Its AC1.4 is 0.272 µM.

How did the AC1.4 turn out when `CC1(C#N)CN(S(=O)(=O)N2CCC[C@H](C(=O)N3CCC[C@@H]3C(=O)NCc3ccc(C(F)(F)F)cc3)C2)C1` [Example 156, 1-(((3S)-1-((3-cyano-3-methyl-1-azetidinyl)sulfonyl)-3-piperidinyl)carbonyl)-N-(4-(trifluoromethyl)benzyl)-D-prolinamide] was run?
Its AC1.4 is 0.2727 µM.

How did the AC1.4 turn out when `N#CC1CN(S(=O)(=O)c2cccc(C(=O)N3CCC[C@@H]3C(=O)NCc3ccc(CF)cc3)c2)C1` [Example 157, 1-((3-((3-cyano-1-azetidinyl)sulfonyl)phenyl)carbonyl)-N-(4-(fluoromethyl)benzyl)-D-prolinamide] was run?
Its AC1.4 is 0.2727 µM.

With `N#CC1CN(S(=O)(=O)c2cccc(C(=O)N3CCC[C@@H]3C(=O)N[C@H](CO)c3cccc(C(F)(F)F)c3)c2)C1` [Example 158, 1-(3-((3-cyano-1-azetidinyl)sulfonyl)benzoyl)-N-((1S)-2-hydroxy-1-(3-(trifluoromethyl)phenyl)ethyl)-D-prolinamide] as the compound, how does the AC1.4 read?
The AC1.4 was 0.273 µM.

For `CS(=O)(=O)c1ccnc(C(=O)N2CCCC[C@@H]2C(=O)N[C@@H](c2cc(F)c(Cl)cc2F)C2CC2)c1` [Example 159, (2R)-N-((R)-(4-chloro-2,5-difluorophenyl)(cyclopropyl)methyl)-1-((4-(methylsulfonyl)-2-pyridinyl)carbonyl)-2-piperidinecarboxamide], which AC1.4 is on record?
Its AC1.4 is 0.2735 µM.
